Results published in patent US20190209528A1, “MEDICINAL DRUG, METHOD, USE, AND COMPOUND FOR PREVENTING OR CURING LEUKEMIA ASSOCIATED WITH MLL” (FUJIFILM Corporation, priority 2016, published 2019).

How the values were obtained:
[1] = system: leukemia associated with MLL (MLL-ENL); conditions: FIG. 3 and FIG. 5 of Genes & development, Vol. 23, pp. 877 to 889, 2009; cited from earlier work
[2] = system: MLL fusion gene (MLL-AF9) leukemia cells; experiment: Mouse acute myelogenous leukemia model with MLL fusion gene (MLL-AF9) introduced (Test Example 1); type: in vivo
Experimental: (§1) Hereinafter, Test examples 1 and 2 will be described. Test Example 1 and 2 were carried out with reference to J Clin Invest., 2013 Sep. 3, 123(9): 3876 to 3888; and Blood, 1 Sep. 2011, Volume 118, 2541 to 2550.
A mouse acute myelogenous leukemia (AML) model into which the MLL fusion gene (MLL-AF9) inducing cancer was introduced, was prepared. Specifically, bone marrow cells were collected from a C57BL/6-Ly5.1 mouse (Sankyo Labo Service Corporation, INC., hereinafter the same applies), and hematopoietic stem precursor cells were isolated using CD117 MicroBeads. MLL-AF9 marked with GFP (green fluorescent protein) was introduced into these cells using a virus. This MLL-AF9-introduced cells were transplanted to the same strain (C57BL/6) mouse (Japan SLC, Inc., hereinafter the same applies), and GFP-positive leukemia cells were collected from the mouse spleens that developed leukemia. These cells were subjected to second, third, and fourth transplantations, and after the fourth transplantation, MLL fusion gene (MLL-AF9) leukemia cells causing all the mice to develop leukemia in about 2 weeks were collected.
These MLL fusion gene (MLL-AF9) leukemia cells 1×10^6/mouse were injected into the C57BL/6 mouse from the tail vein. On day 4 after the day of injection, 0.5% methylcellulose suspension of 5-hydroxy-1H-imidazole-4-carboxamide-3/4 hydrate (medicine) was administered orally to the mouse once per day at 160 mg/kg (in terms of free base) on Monday (day 4), Wednesday (day 6), and Friday (day 8), and this administration was continued during the survival period of the mouse.

[3] = system: p53-deleted MLL fusion gene (MLL-AF9) leukemia cells; experiment: Mouse acute myelogenous leukemia model, MLL-AF9 leukemia cells with the p53 gene deleted (Test Example 2); type: in vivo
Experimental: as §1
In the case where the survival period was extended depending on the function of a p53 gene, there is a concern that clinical usefulness may be limited. For this reason, the MLL fusion gene (MLL-AF9) leukemia cells were prepared in the same manner as in Test Example 1 by using mice in which the p53 gene was deleted.

Structure (SMILES) | efficacy of existing chemotherapy in leukemia associated with MLL [1] | longest survival in medicine-administered group (FIG. 1) ([2]; 160 mg/kg orally Mon/Wed/Fri from day 4) | survival period of medicine-administered group (FIG. 1) ([2]; 160 mg/kg orally Mon/Wed/Fri from day 4, control mice all died in about 20 days) | survival period versus non-administered group ([2]; C57BL/6 mouse, 1x10^6 MLL-AF9 leukemia cells via tail vein, 160 mg/kg (free base) orally once per day Mon/Wed/Fri from day 4, log-rank test significant) | proliferation of GFP+ cells in the peripheral blood (FIG. 2) ([2]; day 10 after injection of leukemia cells, Mann-Whitney's U test significant versus control) | longest survival in medicine-administered group (FIG. 3) [3] | survival period of medicine-administered group (FIG. 3) ([3]; control mice died in less than 20 days) | proliferation of GFP+ cells in the peripheral blood (FIG. 4) ([3]; day 19 after injection of leukemia cells) | survival period versus non-administered group, p53-deleted leukemia cells ([3]; same manner as Test Example 1)
COc1cccc2c1C(=O)c1c(O)c3c(c(O)c1C2=O)C[C@@](O)(C(=O)CO)C[C@@H]3O[C@H]1C[C@H](N)[C@H](O)[C@H](C)O1 [doxorubicin] | not effective | – | – | – | – | – | – | – | –
NC(=O)c1nc[nH]c1O [5-hydroxy-1H-imidazole-4-carboxamide-3/4 hydrate] | – | up to 40 days | ≥ 30 days | significant extension of the survival period | proliferation of GFP+ cells was suppressed | ≥ 40 days | ≥ 20 days | proliferation of GFP+ cells was suppressed | extension of the survival period according to the present invention does not depend on the p53 gene
Nc1ccn([C@@H]2O[C@H](CO)[C@@H](O)[C@@H]2O)c(=O)n1 [cytarabine] | not effective | – | – | – | – | – | – | – | –
